The source of these data is patent US20250186634A1, “METHODS OF TREATING SMALL CELL LUNG CANCER” (Evergreen Discovery, LLC., priority 2023, published 2025).

For assay [1], the target named is T1, CCK2R (Rattus norvegicus, UniProt P30553).
T1 construct: rat pancreatic AR42J cells, which are known to express CCK2R; endogenous in cells; host or cells: AR42J rat pancreatic cancer cell line
T1 sequence (P30553 1-452): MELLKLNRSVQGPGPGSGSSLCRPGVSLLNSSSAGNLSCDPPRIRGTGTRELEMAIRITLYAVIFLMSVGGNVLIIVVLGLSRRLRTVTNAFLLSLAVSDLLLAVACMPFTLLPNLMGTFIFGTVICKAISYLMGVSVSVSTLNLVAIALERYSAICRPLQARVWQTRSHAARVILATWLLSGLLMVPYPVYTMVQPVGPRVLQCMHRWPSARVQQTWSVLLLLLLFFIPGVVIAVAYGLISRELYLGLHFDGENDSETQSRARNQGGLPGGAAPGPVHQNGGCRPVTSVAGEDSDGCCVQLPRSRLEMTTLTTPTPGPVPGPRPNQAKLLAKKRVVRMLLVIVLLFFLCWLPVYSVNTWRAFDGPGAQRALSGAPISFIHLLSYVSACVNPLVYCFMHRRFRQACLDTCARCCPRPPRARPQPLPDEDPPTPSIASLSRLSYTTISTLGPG
Briefly: Small molecule blocking of PP-F11-FITC fluorescent signal in AR42J cells. In kind it is cell-based. The conditions noted are these: 100 nM PP-F11-FITC, antagonist at 50× the concentration of PP-F11-FITC, FIG. 1A.
Method: Small molecule antagonism of PP-F11 in AR42J and Panc1 cell lines was evaluated by measuring the intensity of a fluorescent (“FL”) signal of FL tagged PP-F11 in the presence or absence of small molecule inhibitors.
Each blocking agent was added in a 50× excess dose concentration to saturate available receptors.
FIG. 1A depicts small molecule blocking experiments performed in rat pancreatic AR42J cells, which are known to express CCK2R. 100 nM of a fluorescently labeled version of PP-F11 (PP-F11-FITC) was added to cell culture in the absence of or the presence of various small molecule CCK2 receptor antagonists at 50× the concentration of fluorescently labeled PP-F11. To determine blocking of PP-F11, the fluorescent intensity of fluorescently labeled PP-F11 was measured in each experiment.

Assay [2] concerns the target T1, CCK2R. Description: Uptake of 177Lu-EVG321 by AR42J cells pre-treated with blocking agent (gamma counting). In kind it is cell-based. Conditions: 2 mM blocking agent (100× excess dose), pre-treated 1 hour, 200 fmols 177Lu-EVG321 per well, two-tailed t-test, FIG. 3A-C.
Method: AR42J rat pancreatic cell line were used as they express the CCK2 receptor. The AR42J rat pancreatic cancer cell line was cultured in F-12K medium from ATCC with a final concentration of FBS of 20% (v/v). Medium was changed every 2-3 days and a sub-cultivation ratio of 1:3 was used to split the cells. […] 1×10^6AR42J cells were seeded per well in a 6 well plate in 2 mL of media (DMEM: F12+10% Fetal Bovine Serum (FBS)). Cells were stored at 37° C. in an incubator starting at time 0 for 24-48 hours (depending on cell adherence). On the day of experiment, 1 hour before adding the blocking agent, the medium was changed and replaced with 2 mL of fresh media, and incubated at 37° C. degrees for 1 hour. Once the 1-hour incubation was complete, 4 μL of blocking agent was added to each well to provide a final concentration of 2 mM (i.e., 100 times more concentrated than the radioactive molecule). The plate was gently shaken and incubated at 37° C. for 1 hour. […] Samples were then analyzed using a Hidex Gamma counter to measure counts from each tube (gamma peaks of ^177Lu at 113 keV and 208 keV, 5 minutes per tube counting). […] Radioactive uptake was measured as a fraction of the added radiation at time 0 and used to calculate relative binding in counts per minute (CPM). […]

As for `CSCC[C@H](NC(=O)[C@H](Cc1c[nH]c2ccccc12)NC(=O)CNC(=O)[C@H](Cc1ccc(O)cc1)NC(=O)[C@H](C)NC(=O)[C@@H](CCC(=O)O)NC(=O)[C@@H](CCC(=O)O)NC(=O)[C@@H](CCC(=O)O)NC(=O)[C@@H](CCC(=O)O)NC(=O)[C@@H](CCC(=O)O)NC(=O)[C@H](N)CCC(=O)O)C(=O)N[C@@H](CC(=O)O)C(=O)N[C@@H](Cc1ccccc1)C(N)=O` [PP-F11], the “fluorescent signal of PP-F11-FITC compared to experiment A (PP-F11-FITC only); decrease indicates blocking of PP-F11 binding” value in assay [1] is on record as “decrease in fluorescent signal”.
For the compound `CCCN(CCC)C(=O)C(CCC(=O)O)NC(=O)c1ccccc1` (stereo not shown) [proglumide, 4-benzamido-5-(dipropylamino)-5-oxopentanoic acid], the “specific uptake of 177Lu-EVG321 (relative uptake, CPM) versus cells without blocking agent” value in assay [2] was “did not show as drastic and statistically significant reduction of uptake”.
As to `CNc1cccc(NC(=O)N[C@@H]2N=C(c3ccccn3)c3ccccc3N(CC(=O)C(C)(C)C)C2=O)c1` [sograzepide, (R)-1-(1-(3,3-dimethyl-2-oxobutyl)-2-oxo-5-(pyridin-2-yl)-2,3-dihydro-1H-benzo[e][1,4]diazepin-3-yl)-3-(3-(methylamino)phenyl) urea], in assay [2], the “specific uptake of 177Lu-EVG321 (relative uptake, CPM) versus cells without blocking agent” value is “significant decrease in the specific uptake”. Besides, the “fluorescent signal of PP-F11-FITC compared to experiment A (PP-F11-FITC only); decrease indicates blocking of PP-F11 binding” value in assay [1] is “decrease in fluorescent signal”.
